Columns and labels:
[1] = Determination of oral bioavailability by urinary recovery after oral administration; type: in vivo; settings: Long Evans Rats, gavage, 50 mg/kg; percent of dose excreted in urine over 48 hour collection as the parent compound 1-(β-D-arabinofuranosyl)-5-prop-1-ynyluracil
Experimental: Tests in rats were carried out on compounds of the invention to determine their bioavailability by measuring the urinary recovery after oral administration, as a percentage of the dose administered. High levels of the parent compound, 1-(β-D-arabinofuranosyl)-5-prop-1-ynyluracil, in the urine indicated good absorption from the gut.
Long Evans Rats were administered the compound of Example 1 or the parent compound by gavage at a dose of 50 mg/kg. The urine was collected for 24 and 48 hours post-dose, ultrafiltered, and analysed by reverse-phase high-pressure liquid chromatography. The oral bioavailability of the Example 1 compound and the parent compound was expressed as the percent of the dose excreted in the urine over the 48 hour period of collection, as 1-(β-D-arabinofuranosyl)-5-prop-1-ynyluracil, i.e. the parent compound.

Vero cells = assay: Cell toxicity in a cell growth inhibition assay (MTT uptake); type: cell-based; settings: concentration for 50% inhibition of cell viability at 96 hours
Experimental: Cell toxicity is assessed in a cell growth inhibition assay. Subconfluent cultures of Vero cells grown on 96-well microtiter dishes are exposed to different dilutions of drug, and cell viability determined daily on replicate cultures using uptake of a tetrazolium dye (MTT). The concentration required for a 50% inhibition of cell vaibility at 96 hours is termed CCID₅₀.

| Molecule | Urinary Recovery (% of dose) [1] | CCID₅₀(µM) at 96 hr (Vero cells) [µM] |
| --- | --- | --- |
| CC#Cc1cn([C@@H]2O[C@H](CO)[C@@H](O)[C@@H]2O)c(=O)[nH]c1=O [Parent Compound, 1-(β-D-arabinofuranosyl)-5-prop-1-ynyluracil, reference compound] | 9.70 % of dose | – |
| 5-Prop-1-ynyl-1-(5-0-trimethylacetyl-β-D-arabinofuranosyl)uracil [Example 1] | 64.89 % of dose | 477 |

— EP0375164B1, “Antiviral compounds” (THE WELLCOME FOUNDATION LIMITED, priority 1988, dated 1990)
